The experiment deals with progeria senescent fibroblasts (passage 17). Kind of experiment: Morphological change by microscopy. Particulars: CP-466722 0.1 μM. In kind it is cell-based, human. As for the experimental part:
Progeria senescent fibroblasts (Hutchinson-Gilford Progeria Syndrome Skin Fibroblasts, Coriell Cell Repositories, AG03198 B) were inoculated into a DMEM medium containing 10% FBS, 100 units/ml of penicillin, and 100 μg/ml of streptomycin (wherein all antibiotics were purchased from Gibco-BRL, Grand Island, N.Y.), and then, cultured in a 5% CO2 incubator at a temperature of 37° C. When progeria senescent cells were grown to about 85% confluency in a plate, the progeria senescent cells were subjected to subculture. The early subculture was carried out at a split ratio of 1:4, and the late subculture was carried out at a split ratio of 1:2. When the cell doubling time was 14 days, the cells were considered to be progeria senescent fibroblasts (passages 16 to 17).
[…] The medium was replaced by a fresh medium containing KU-60019 (0.5 μM), once every 4 days. In addition, as a negative control group, the cells were cultured under the same conditions as described above, except that a medium used herein contained DMSO (0.05 (v/v) %).
In FIG. 10, a human dermal fibroblast was cultured in the presence of the ATM-kinase inhibitor KU-60019 (0.5 μM), and then, the cell shapes were photographed using a microscope. To provide a better view of the cells formed in a dashed square a, a dashed square a1 was randomly selected, and then, the cells are shown enlarged in the dashed square a1. […]

For the compound `COc1cc2ncnc(-n3nc(-c4ccccn4)nc3N)c2cc1OC` [CP-466722, 2-(6,7-dimethoxyquinazolin-4-yl)-5-(pyridin-2-yl)-2H-1,2,4-triazol-3-amine], the “cell number and morphology vs DMSO control” value was “exist in a great number in the presence of CP-466722 and show a spindle form”.

The record behind these values is patent US9770451B2, “Composition including ATM inhibitor for reducing cellular senescence and use of the composition” (Samsung Electronics Co., Ltd., priority 2014, dated 2017).
